# Measurements from article PMC13286198 (PLOS One, 2026).
# Assay: Pharmacokinetic interaction study in rats, plasma by UPLC-MS/MS
# Format: in vivo, Sprague–Dawley rats
# Conditions: oral, n = 6
# Protocol: The sample size for each group of rats was calculated using the resource equation method [27]. The doses were chosen by converting the clinically recommended doses for patients to animal doses. […] The value of Km represents the equivalent dose ratio between humans and rats, calculated based on body surface area. […] The following groups received control solvents corresponding to each drug for a duration of seven consecutive days. […] Conversely, remaining groups were treated with their respective drugs at the aforementioned doses for seven consecutive days. […] Blood samples were centrifuged at 3,500 rpm for 10 min, and the supernatant was collected and stored at -80°C until processing for UPLC-MS/MS. The induction of anesthesia was performed using 5% isoflurane, and the concentration was maintained at 2% throughout the blood collection process. The blood was extracted from the eye venous plexus by well-trained professionals to minimize the animal's suffering. Following blood collection, rat liver, intestinal and kidney tissues were collected for molecular analysis on the seventh day post-treatment with the corresponding drugs for each group. Before euthanizing the animals, they were required to fast for at least 12 hours. Using sodium pentobarbital (2 g/kg) to put the animals into a deep state of anesthesia, Collect the required tissue samples and the rats were euthanized by cervical dislocation. […] The temperature maintained at 40 by gradient elution. […] Aliquots (8 μL) of these redissolved samples were used into the UPLC-MS/MS system for subsequent analysis. […] Analysis was conducted in a non-compartmental model. The metrics such as the area under the concentration-time curve (AUC), maximum plasma concentration (Cmax), time to reach Cmax (Tmax), elimination half-life (t1/2), plasma clearance volume per time unit (CLz/F), apparent volume of distribution (Vz), and mean residence time (MRT) were expressed as mean ± standard deviation (SD). Comparisons corresponding test groups were conducted using SPSS 25.0 software (SPSS Inc., Chicago, IL, USA).
Structure (SMILES),Cmax ((control of the henagliflozin study)) [ng/mL],Cmax (henagliflozin 1 mg/kg after telmisartan 8 mg/kg for 7 days) [ng/mL],Vz (henagliflozin 1 mg/kg alone) [L/kg]
CCCc1nc2c(C)cc(-c3nc4ccccc4n3C)cc2n1Cc1ccc(-c2ccccc2C(=O)O)cc1 [telmisartan],160.33 ± 24.57,–,–
CCOc1ccc(Cc2cc([C@@]34OC[C@@](CO)(O3)[C@@H](O)[C@H](O)[C@H]4O)ccc2Cl)cc1F [henagliflozin],–,356.83 ± 59.55,3.87 ± 1.49
